What was measured:
Experiment in all cases: biochemical
Assay type in all cases: biochemical
[1] = target: T1, 382 unique human kinases (Homo sapiens, UniProt Q92630); settings: DYRK2, 10 uM; for remaining activity at 10 µM: read-out: % Enzyme Activity (relative to DMSO controls)
T1 construct: purchased Reaction Biology (HotSpot contract assay)
T1 sequence (Q92630 1-601): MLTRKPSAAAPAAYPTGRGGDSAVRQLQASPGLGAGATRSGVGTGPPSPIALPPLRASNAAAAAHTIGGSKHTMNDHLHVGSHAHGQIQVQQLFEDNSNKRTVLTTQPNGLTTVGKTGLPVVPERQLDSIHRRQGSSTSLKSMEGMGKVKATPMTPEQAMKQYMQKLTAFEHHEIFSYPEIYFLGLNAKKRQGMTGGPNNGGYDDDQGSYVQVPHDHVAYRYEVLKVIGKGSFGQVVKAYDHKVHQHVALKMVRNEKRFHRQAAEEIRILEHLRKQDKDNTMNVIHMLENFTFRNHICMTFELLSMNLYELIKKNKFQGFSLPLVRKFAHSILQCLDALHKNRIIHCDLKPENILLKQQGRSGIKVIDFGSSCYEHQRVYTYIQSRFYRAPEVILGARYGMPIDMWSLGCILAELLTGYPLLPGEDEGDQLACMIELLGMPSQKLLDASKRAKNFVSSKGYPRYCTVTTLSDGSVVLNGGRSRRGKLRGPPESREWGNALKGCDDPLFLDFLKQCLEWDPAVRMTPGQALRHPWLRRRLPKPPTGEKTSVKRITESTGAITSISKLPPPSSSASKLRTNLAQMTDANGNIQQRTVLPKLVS

[2] = target: T2, 382 unique human kinases (Homo sapiens, UniProt Q9NR20); settings: DYRK4, 10 uM; for remaining activity at 10 µM: read-out: % Enzyme Activity (relative to DMSO controls)
T2 construct: purchased Reaction Biology (HotSpot contract assay)
T2 sequence (Q9NR20 1-520): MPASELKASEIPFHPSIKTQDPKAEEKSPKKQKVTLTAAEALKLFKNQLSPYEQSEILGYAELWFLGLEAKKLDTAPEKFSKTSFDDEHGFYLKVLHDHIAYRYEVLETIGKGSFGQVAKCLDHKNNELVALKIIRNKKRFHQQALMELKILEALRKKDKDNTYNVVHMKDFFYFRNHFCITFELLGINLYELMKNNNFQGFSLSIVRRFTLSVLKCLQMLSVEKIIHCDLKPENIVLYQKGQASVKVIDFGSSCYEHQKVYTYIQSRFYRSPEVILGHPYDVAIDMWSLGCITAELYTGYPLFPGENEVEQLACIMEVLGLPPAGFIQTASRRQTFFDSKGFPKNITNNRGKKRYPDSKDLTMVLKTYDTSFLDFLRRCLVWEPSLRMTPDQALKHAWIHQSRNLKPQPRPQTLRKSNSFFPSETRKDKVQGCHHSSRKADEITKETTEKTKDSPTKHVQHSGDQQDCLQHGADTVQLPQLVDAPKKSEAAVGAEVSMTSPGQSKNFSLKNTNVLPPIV

[3] = target: T3, 382 unique human kinases (Homo sapiens, UniProt Q13164); settings: kinase ERK5/MAPK7, compound 10 uM; for remaining activity at 10 µM: read-out: % Enzyme Activity (relative to DMSO controls)
T3 construct: purchased Reaction Biology (HotSpot contract assay)
T3 sequence (Q13164 whole entry): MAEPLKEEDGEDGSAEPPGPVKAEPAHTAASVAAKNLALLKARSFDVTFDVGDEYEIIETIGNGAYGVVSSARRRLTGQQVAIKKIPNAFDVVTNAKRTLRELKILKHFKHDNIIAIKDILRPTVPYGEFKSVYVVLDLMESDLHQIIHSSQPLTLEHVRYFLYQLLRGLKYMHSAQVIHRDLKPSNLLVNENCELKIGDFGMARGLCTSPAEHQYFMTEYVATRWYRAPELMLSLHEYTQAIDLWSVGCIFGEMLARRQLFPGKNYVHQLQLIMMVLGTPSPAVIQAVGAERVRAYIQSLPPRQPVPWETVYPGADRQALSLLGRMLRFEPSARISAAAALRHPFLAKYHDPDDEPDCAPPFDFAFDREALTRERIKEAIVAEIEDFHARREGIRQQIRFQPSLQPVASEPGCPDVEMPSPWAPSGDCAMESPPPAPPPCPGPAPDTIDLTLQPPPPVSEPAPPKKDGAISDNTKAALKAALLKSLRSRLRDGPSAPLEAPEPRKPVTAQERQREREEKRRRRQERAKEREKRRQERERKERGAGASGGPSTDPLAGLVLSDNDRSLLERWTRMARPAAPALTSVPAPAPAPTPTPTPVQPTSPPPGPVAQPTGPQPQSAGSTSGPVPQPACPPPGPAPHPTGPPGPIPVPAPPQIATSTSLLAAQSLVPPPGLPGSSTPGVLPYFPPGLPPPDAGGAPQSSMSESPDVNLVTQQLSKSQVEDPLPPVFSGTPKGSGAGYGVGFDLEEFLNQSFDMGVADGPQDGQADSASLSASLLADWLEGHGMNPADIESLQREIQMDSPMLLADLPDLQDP

[4] = target: T4, 382 unique human kinases (Homo sapiens, UniProt Q9Y6M4); settings: kinase CK1g3, compound 10 uM; for remaining activity at 10 µM: read-out: % Enzyme Activity (relative to DMSO controls)
T4 construct: purchased Reaction Biology (HotSpot contract assay)

[5] = target: T5, 382 unique human kinases (Homo sapiens, UniProt P29376); settings: TYK1/LTK, 10 uM; for remaining activity at 10 µM: read-out: % Enzyme Activity (relative to DMSO controls)
T5 construct: purchased Reaction Biology (HotSpot contract assay)
T5 sequence (P29376 17-864): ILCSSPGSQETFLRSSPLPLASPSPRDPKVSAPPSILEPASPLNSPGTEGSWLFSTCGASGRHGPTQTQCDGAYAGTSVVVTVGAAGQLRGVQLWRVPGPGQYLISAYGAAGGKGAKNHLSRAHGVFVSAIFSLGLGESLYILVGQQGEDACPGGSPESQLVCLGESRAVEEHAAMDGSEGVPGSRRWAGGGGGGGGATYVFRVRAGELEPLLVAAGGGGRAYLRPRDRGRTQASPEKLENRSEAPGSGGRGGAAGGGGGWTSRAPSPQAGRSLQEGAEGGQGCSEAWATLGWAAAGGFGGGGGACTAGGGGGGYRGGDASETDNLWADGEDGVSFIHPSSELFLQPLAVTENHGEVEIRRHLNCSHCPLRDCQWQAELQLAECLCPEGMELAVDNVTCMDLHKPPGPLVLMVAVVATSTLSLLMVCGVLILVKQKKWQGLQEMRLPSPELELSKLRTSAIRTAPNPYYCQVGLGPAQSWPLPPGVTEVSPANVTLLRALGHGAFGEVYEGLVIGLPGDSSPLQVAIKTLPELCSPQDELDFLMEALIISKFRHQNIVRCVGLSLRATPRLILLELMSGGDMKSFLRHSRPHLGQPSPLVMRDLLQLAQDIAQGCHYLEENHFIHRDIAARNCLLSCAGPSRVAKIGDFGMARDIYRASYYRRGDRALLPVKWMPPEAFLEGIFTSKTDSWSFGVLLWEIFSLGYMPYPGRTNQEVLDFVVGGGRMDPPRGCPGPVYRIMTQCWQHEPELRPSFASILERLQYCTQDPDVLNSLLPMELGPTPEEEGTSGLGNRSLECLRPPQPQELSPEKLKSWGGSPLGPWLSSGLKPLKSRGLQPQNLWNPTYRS

[6] = target: T6, 382 unique human kinases (Homo sapiens, UniProt P31751); settings: kinase AKT2, compound 10 uM; for remaining activity at 10 µM: read-out: % Enzyme Activity (relative to DMSO controls)
T6 construct: purchased Reaction Biology (HotSpot contract assay)

[7] = target: T7, 382 unique human kinases (Homo sapiens, UniProt Q76MJ5); settings: ERN2/IRE2, 10 uM; for remaining activity at 10 µM: read-out: % Enzyme Activity (relative to DMSO controls)
T7 construct: purchased Reaction Biology (HotSpot contract assay)

[8] = target: T8, 382 unique human kinases (Homo sapiens, UniProt P07949, R813Q); settings: RET (R813Q), 10 uM; for remaining activity at 10 µM: read-out: % Enzyme Activity (relative to DMSO controls)
T8 construct: purchased Reaction Biology (HotSpot contract assay)
T8 sequence (P07949 29-1114 R813Q): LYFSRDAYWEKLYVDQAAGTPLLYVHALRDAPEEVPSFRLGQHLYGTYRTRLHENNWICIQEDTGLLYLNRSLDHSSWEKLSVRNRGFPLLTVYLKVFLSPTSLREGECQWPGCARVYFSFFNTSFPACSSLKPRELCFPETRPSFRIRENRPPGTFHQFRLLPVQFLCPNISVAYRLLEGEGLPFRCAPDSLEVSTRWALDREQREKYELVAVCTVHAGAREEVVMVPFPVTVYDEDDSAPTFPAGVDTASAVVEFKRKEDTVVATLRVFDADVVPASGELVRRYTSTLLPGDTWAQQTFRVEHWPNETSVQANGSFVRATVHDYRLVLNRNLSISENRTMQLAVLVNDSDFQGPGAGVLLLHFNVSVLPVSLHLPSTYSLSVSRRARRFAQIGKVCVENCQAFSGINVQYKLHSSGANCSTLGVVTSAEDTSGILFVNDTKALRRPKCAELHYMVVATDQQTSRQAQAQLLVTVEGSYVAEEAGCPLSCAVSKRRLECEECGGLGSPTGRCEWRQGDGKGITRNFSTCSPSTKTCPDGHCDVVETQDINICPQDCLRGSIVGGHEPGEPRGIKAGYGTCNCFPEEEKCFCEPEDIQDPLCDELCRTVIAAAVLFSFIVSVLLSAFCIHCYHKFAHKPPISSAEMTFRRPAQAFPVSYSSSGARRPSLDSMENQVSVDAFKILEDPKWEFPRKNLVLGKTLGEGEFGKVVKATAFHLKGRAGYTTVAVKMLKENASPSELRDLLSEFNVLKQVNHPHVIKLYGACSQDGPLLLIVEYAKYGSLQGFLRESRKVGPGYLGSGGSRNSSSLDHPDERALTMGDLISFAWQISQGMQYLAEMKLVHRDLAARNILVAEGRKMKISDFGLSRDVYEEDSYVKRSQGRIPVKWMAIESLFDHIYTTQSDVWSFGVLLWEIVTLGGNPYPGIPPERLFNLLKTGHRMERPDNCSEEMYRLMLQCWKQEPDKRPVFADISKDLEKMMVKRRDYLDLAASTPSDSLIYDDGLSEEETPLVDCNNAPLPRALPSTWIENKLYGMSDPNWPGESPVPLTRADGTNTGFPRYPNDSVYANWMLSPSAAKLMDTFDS

[9] = target: T9, 382 unique human kinases (Homo sapiens, UniProt Q15375); settings: kinase EPHA7, compound 10 uM; for remaining activity at 10 µM: read-out: % Enzyme Activity (relative to DMSO controls)
T9 construct: purchased Reaction Biology (HotSpot contract assay)

[10] = target: T10, 382 unique human kinases (Homo sapiens, UniProt Q14289); settings: PYK2, 10 uM; for remaining activity at 10 µM: read-out: % Enzyme Activity (relative to DMSO controls)
T10 construct: purchased Reaction Biology (HotSpot contract assay)

[11] = target: T11, 382 unique human kinases (Homo sapiens, UniProt P51812, L608F); settings: RSK2 (L608F), [ATP] 10 µM, compound 10 uM; for remaining activity at 10 µM: read-out: % Enzyme Activity (relative to DMSO controls)
T11 construct: purchased Reaction Biology (HotSpot contract assay)

[12] = target: T12, 382 unique human kinases (Homo sapiens, UniProt Q06187, C481S); settings: BTK (C481S), [ATP] 15 µM, compound 10 uM; for remaining activity at 10 µM: read-out: % Enzyme Activity (relative to DMSO controls)
T12 construct: purchased Reaction Biology (HotSpot contract assay)
T12 sequence (Q06187 whole entry C481S): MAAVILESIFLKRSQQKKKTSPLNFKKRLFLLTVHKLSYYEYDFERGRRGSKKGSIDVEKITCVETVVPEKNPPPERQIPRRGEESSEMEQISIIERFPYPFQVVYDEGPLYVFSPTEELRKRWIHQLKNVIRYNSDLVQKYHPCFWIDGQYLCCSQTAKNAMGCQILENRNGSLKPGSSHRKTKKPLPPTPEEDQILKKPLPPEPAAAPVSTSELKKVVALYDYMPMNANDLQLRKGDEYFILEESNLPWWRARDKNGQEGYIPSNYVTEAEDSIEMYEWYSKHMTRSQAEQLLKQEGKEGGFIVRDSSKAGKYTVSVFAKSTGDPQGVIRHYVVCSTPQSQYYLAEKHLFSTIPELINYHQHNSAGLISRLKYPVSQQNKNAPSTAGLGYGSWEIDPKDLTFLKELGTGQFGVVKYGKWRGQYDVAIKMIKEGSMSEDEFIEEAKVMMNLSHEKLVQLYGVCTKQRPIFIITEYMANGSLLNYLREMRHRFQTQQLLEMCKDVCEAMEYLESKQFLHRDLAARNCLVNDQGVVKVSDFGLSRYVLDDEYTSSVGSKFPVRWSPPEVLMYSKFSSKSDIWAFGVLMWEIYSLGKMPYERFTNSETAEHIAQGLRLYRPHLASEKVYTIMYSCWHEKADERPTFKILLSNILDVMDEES

[13] = target: T13, 382 unique human kinases (Homo sapiens, UniProt Q9UM73, L1152R); settings: ALK (L1152R), [ATP] 30 µM, compound 10 uM; for remaining activity at 10 µM: read-out: % Enzyme Activity (relative to DMSO controls)
T13 construct: purchased Reaction Biology (HotSpot contract assay)

[14] = target: T14, 382 unique human kinases (Homo sapiens, UniProt Q14012); settings: CAMK1a, 10 uM; for remaining activity at 10 µM: read-out: % Enzyme Activity (relative to DMSO controls)
T14 construct: purchased Reaction Biology (HotSpot contract assay)

[15] = target: T15, 382 unique human kinases (Homo sapiens, UniProt P10721, V560G); settings: c-Kit (V560G), [ATP] 20 µM, compound 10 uM; for remaining activity at 10 µM: read-out: % Enzyme Activity (relative to DMSO controls)
T15 construct: purchased Reaction Biology (HotSpot contract assay)

[16] = target: T16, 382 unique human kinases (Homo sapiens, UniProt P06241); settings: FYN, [ATP] 30 µM
T16 construct: purchased Reaction Biology (HotSpot contract assay)
T16 sequence (P06241 whole entry): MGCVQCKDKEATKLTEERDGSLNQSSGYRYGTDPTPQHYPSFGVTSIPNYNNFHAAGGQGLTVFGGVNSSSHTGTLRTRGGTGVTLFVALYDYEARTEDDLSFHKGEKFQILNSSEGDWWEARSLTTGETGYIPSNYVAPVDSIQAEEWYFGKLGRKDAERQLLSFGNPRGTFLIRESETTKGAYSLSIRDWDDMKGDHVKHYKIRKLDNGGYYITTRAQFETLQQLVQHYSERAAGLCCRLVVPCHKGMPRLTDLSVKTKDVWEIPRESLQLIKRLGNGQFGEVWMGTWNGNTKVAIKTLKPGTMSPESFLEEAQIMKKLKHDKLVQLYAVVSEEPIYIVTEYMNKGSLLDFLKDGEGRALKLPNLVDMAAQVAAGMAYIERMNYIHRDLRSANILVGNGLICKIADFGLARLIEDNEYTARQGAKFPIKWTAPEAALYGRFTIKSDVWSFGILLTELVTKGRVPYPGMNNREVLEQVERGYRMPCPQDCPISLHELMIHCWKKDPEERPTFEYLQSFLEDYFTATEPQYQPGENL

[17] = target: T17, 382 unique human kinases (Homo sapiens, UniProt Q9Y572); settings: RIPK3, [ATP] 2.5 µM, compound 10 uM; for remaining activity at 10 µM: read-out: % Enzyme Activity (relative to DMSO controls)
T17 construct: purchased Reaction Biology (HotSpot contract assay)
T17 sequence (Q9Y572 whole entry): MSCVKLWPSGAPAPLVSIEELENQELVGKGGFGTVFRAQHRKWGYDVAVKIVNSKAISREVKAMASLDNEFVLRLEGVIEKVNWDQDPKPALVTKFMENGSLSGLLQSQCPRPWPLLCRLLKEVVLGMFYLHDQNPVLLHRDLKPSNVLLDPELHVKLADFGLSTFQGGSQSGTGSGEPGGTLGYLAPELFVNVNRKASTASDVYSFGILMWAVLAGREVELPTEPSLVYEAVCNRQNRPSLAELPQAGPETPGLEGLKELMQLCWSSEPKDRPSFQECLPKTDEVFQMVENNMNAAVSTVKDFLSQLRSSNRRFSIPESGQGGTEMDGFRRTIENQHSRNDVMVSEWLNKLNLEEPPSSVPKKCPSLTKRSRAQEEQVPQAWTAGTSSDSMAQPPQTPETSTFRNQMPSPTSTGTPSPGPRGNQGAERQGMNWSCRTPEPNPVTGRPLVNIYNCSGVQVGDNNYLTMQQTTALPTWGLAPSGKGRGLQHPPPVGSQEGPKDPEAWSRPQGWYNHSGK

[18] = target: T18, 382 unique human kinases (Homo sapiens, UniProt P09769); settings: FGR, [ATP] 50 µM
T18 construct: purchased Reaction Biology (HotSpot contract assay)

[19] = target: T19, 382 unique human kinases (Homo sapiens, UniProt Q9HCP0); settings: CK1g1, 10 uM; for remaining activity at 10 µM: read-out: % Enzyme Activity (relative to DMSO controls)
T19 construct: purchased Reaction Biology (HotSpot contract assay)
T19 sequence (Q9HCP0 whole entry): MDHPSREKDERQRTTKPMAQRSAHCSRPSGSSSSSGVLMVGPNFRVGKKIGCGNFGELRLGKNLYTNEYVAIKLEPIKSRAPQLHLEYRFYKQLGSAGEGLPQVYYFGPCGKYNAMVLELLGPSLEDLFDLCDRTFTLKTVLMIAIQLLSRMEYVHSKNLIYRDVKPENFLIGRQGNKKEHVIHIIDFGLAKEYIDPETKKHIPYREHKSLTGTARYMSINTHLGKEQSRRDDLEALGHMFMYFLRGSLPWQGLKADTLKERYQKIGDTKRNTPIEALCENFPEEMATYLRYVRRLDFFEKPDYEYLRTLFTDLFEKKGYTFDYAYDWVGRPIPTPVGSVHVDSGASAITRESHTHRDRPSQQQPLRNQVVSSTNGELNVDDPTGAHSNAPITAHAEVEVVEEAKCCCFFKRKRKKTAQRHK

[20] = target: T20, 382 unique human kinases (Homo sapiens, UniProt P10721, D816V); settings: c-Kit (D816V), [ATP] 10 µM, compound 10 uM; for remaining activity at 10 µM: read-out: % Enzyme Activity (relative to DMSO controls)
T20 construct: purchased Reaction Biology (HotSpot contract assay)

[21] = compound 10 uM, read-out: % Enzyme Activity (relative to DMSO controls)
[22] = compound 1 uM, read-out: % Enzyme Activity (relative to DMSO controls)

| Compound | remaining activity at 10 µM [1] | remaining activity at 10 µM [2] | remaining activity at 10 µM [3] | remaining activity at 10 µM [4] | remaining activity at 10 µM [5] | remaining activity at 10 µM [6] | remaining activity at 10 µM [7] | remaining activity at 10 µM [8] | remaining activity at 10 µM [9] | remaining activity at 10 µM [10] | remaining activity at 10 µM [11] | remaining activity at 10 µM [12] | remaining activity at 10 µM [13] | remaining activity at 10 µM [14] | remaining activity at 10 µM [15] | remaining activity at 10 µM [17] | remaining activity at 10 µM [18, 21] | remaining activity at 10 µM [19] | remaining activity at 10 µM [20] | other results |
| --- | --- | --- | --- | --- | --- | --- | --- | --- | --- | --- | --- | --- | --- | --- | --- | --- | --- | --- | --- | --- |
| CC(C)c1cc(-c2n[nH]c(=O)n2-c2ccc3c(ccn3C)c2)c(O)cc1O [Ganetespib (STA9090)] | 75% | 96.8% | 91.3% | 82% | 73.6% | 83.9% | 66.7% | 78% | 86.7% | 78.5% |  |  |  |  |  |  |  |  |  |  |
| CCNC(=O)c1noc(-c2cc(C(C)C)c(O)cc2O)c1-c1ccc(CN2CCOCC2)cc1 [Luminespib] |  |  |  |  |  |  |  |  |  |  | 108% | 43.2% | 90.7% | 109% | 111% | 124% | 34.1% | 97.5% | 68.9% | % Enzyme Activity (relative to DMSO controls) [11]: 105.75%; % Enzyme Activity (relative to DMSO controls) [12]: 41.81%; % Enzyme Activity (relative to DMSO controls) [13]: 90.08%; % Enzyme Activity (relative to DMSO controls) [14]: 103.58%; % Enzyme Activity (relative to DMSO controls) [15]: 109.32%; % Enzyme Activity (relative to DMSO controls) ([16]; compound 10 uM): 65.29%; remaining activity at 10 µM [16, 21]: 65.6%; % Enzyme Activity (relative to DMSO controls) [17]: 115.01%; % Enzyme Activity (relative to DMSO controls) ([18]; compound 10 uM): 33.14%; % Enzyme Activity (relative to DMSO controls) [19]: 93.44%; % Enzyme Activity (relative to DMSO controls) [20]: 67.99% |
| CCNC(=O)c1noc(-c2cc(C(C)C)c(O)cc2O)c1-c1ccc(CN2CCOCC2)cc1 [Luminespib (AUY-922)] | 99.7% | 66.1% | 86.6% | 99.7% | 98.2% | 97.3% | 108% | 105% | 97.9% | 98.8% |  |  |  |  |  |  |  |  |  | % Enzyme Activity (relative to DMSO controls) [1]: 98.38%; % Enzyme Activity (relative to DMSO controls) [2]: 63.33%; % Enzyme Activity (relative to DMSO controls) [3]: 86.48%; % Enzyme Activity (relative to DMSO controls) [4]: 98.54%; % Enzyme Activity (relative to DMSO controls) [5]: 97.76%; % Enzyme Activity (relative to DMSO controls) [6]: 96.69%; % Enzyme Activity (relative to DMSO controls) [7]: 105.69%; % Enzyme Activity (relative to DMSO controls) [8]: 103.53%; % Enzyme Activity (relative to DMSO controls) [9]: 95.91%; % Enzyme Activity (relative to DMSO controls) [10]: 97.56% |
| CC(C)c1cc(-c2n[nH]c(=O)n2-c2ccc3c(ccn3C)c2)c(O)cc1O [Ganetespib] |  |  |  |  |  |  |  |  |  |  | 52.5% | 65% | 14.2% | 91.4% | 58.9% | 59.1% | 14.4% | 95.4% | 30.4% | remaining activity at 1 µM [16, 22]: 47.6%; remaining activity at 1 µM [18, 22]: 47.5% |

From PMC8550792, “Evolution of kinase polypharmacology across HSP90 drug discovery” (Cell Chemical Biology, 2021)
